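These data come from cells grown in 96-well plates and exposed to compound for 48 hours at five concentrations. Abbreviation: GI50, concentration required for 50% inhibition of growth.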 Calls of active or inactive are those of the source. No stated cut-off is given here; in the data, active = GI50 up to about 1.1 µM and inactive = higher.
How the values were obtained:
Assay in all cases: growth of human tumour cells (NCI), 48 h
[1] = system: 786-0
[2] = system: A498
[3] = system: ACHN
[4] = system: BT-549
[5] = system: CAKI-1
[6] = system: CCRF-CEM
[7] = system: COLO 205
[8] = system: DU-145
[9] = system: EKVX
[10] = system: HCC 2998
[11] = system: HCT-116
[12] = system: HCT-15
[13] = system: HL-60
[14] = system: HOP-62
[15] = system: HOP-92
[16] = system: HT-29
[17] = system: Hs-578T
[18] = system: IGROV-1
[19] = system: K562
[20] = system: KM12
[21] = system: LOX IMVI
[22] = system: M14
[23] = system: MDA-MB-231
[24] = system: MDA-MB-435
[25] = system: MDA-N
[26] = system: MOLT-4
[27] = system: Malme-3M
[28] = system: NCI-H226
[29] = system: NCI-H23
[30] = system: NCI-H460
[31] = system: NCI/ADR-RES
[32] = system: OVCAR-3
[33] = system: OVCAR-4
[34] = system: OVCAR-5
[35] = system: OVCAR-8
[36] = system: PC-3
[37] = system: RPMI-8226
[38] = system: SF-268
[39] = system: SF-295
[40] = system: SF-539
[41] = system: SK-MEL-28
[42] = system: SK-MEL-2
[43] = system: SK-MEL-5
[44] = system: SK-OV-3
[45] = system: SN12C
[46] = system: SNB-19
[47] = system: SNB-75
[48] = system: SW-620
[49] = system: TK-10
[50] = system: U-251
[51] = system: UACC-257
[52] = system: UACC-62
[53] = system: UO-31
[54] = system: MCF7
[55] = system: NCI-H522
[56] = system: RXF 393
[57] = system: SR
[58] = system: T47D
[59] = system: A549

Measured: GI50

CCN(CC)c1c(-c2c(N(CC)CC)c(OC(C)=O)c3sccn3c2=O)c(=O)n2ccsc2c1OC(C)=O
> 100 µM: [12]
inactive: [1] 22.5 µM | [2] > 100 µM | [3] > 100 µM | [4] 32 µM | [5] > 100 µM | [6] > 100 µM | [7] > 100 µM | [8] > 100 µM | [9] > 100 µM | [10] > 100 µM | [11] 71 µM | [13] > 100 µM | [14] 21.3 µM | [15] > 100 µM | [16] > 100 µM | [17] 38.8 µM | [18] 68.1 µM | [19] > 100 µM | [20] > 100 µM | [21] > 100 µM | [22] > 100 µM | [23] 21.1 µM | [24] > 100 µM | [25] > 100 µM | [26] > 100 µM | [27] > 100 µM | [28] 44.4 µM | [29] > 100 µM | [30] > 100 µM | [31] 49.5 µM | [32] > 100 µM | [33] > 100 µM | [34] > 100 µM | [35] 33 µM | [36] > 100 µM | [37] > 100 µM | [38] 39.9 µM | [39] 32 µM | [40] 85.5 µM | [41] > 100 µM | [42] 93.8 µM | [43] > 100 µM | [44] 73.3 µM | [45] > 100 µM | [46] 59.6 µM | [47] 19.4 µM | [48] > 100 µM | [49] 33.2 µM | [50] 37.5 µM | [51] > 100 µM | [52] 81.7 µM | [53] 93.1 µM

COC(=O)C1=C(O)C(C(=O)OC)[C@@]2(O)[C@@H](C(=O)OC)[C@H](C)[C@@H](C)[C@@H]1[C@@H]2C(=O)OC (stereo partly drawn)
inactive: [2] > 100 µM | [3] > 100 µM | [4] 37.5 µM | [6] 60.5 µM | [8] > 100 µM | [9] 52.8 µM | [10] 37.8 µM | [11] 66.1 µM | [13] 45.7 µM | [14] 89.5 µM | [16] 55.7 µM | [17] 27.4 µM | [19] 35.6 µM | [20] 34.8 µM | [21] 51.9 µM | [22] 67.5 µM | [54] 38.1 µM | [23] > 100 µM | [24] 17.9 µM | [25] 22 µM | [26] > 100 µM | [27] 83.2 µM | [28] 55.8 µM | [29] 75.2 µM | [30] 44.9 µM | [55] 26.9 µM | [32] 27 µM | [34] > 100 µM | [37] 51.1 µM | [56] 13.2 µM | [38] > 100 µM | [40] 35.6 µM | [41] > 100 µM | [42] 48.5 µM | [44] 49.4 µM | [45] > 100 µM | [46] > 100 µM | [47] 57.7 µM | [57] 28.2 µM | [58] > 100 µM | [49] > 100 µM | [50] 86.5 µM | [51] 46.6 µM | [52] 55.5 µM | [53] 38.5 µM
41.5 µM: [12]

CCNC(=O)C1CCCN1C(=O)C(CCCN=C(N)N)NC(=O)C(CC(C)C)NC(=O)C(Cc1c[nH]c2ccccc12)NC(=O)C(Cc1ccc(O)cc1)NC(=O)C(CO)NC(=O)C(Cc1c[nH]c2ccccc12)NC(=O)C(Cc1c[nH]cn1)NC(=O)C1CCC(=O)N1 (stereo not drawn)
inactive: [1] > 100 µM | [2] > 100 µM | [59] > 100 µM | [3] > 100 µM | [4] > 100 µM | [5] > 100 µM | [6] > 100 µM | [7] > 100 µM | [8] > 100 µM | [9] > 100 µM | [10] > 100 µM | [14] > 100 µM | [15] > 100 µM | [16] > 100 µM | [17] > 100 µM | [18] > 100 µM | [19] > 100 µM | [20] > 100 µM | [22] > 100 µM | [54] > 100 µM | [23] > 100 µM | [24] > 100 µM | [25] > 100 µM | [26] > 100 µM | [27] > 100 µM | [28] > 100 µM | [29] > 100 µM | [30] > 100 µM | [55] > 100 µM | [31] > 100 µM | [32] > 100 µM | [33] > 100 µM | [34] > 100 µM | [35] > 100 µM | [36] > 100 µM | [37] > 100 µM | [56] > 100 µM | [38] > 100 µM | [39] > 100 µM | [40] > 100 µM | [42] > 100 µM | [43] > 100 µM | [44] > 100 µM | [45] > 100 µM | [46] > 100 µM | [47] > 100 µM | [57] > 100 µM | [48] > 100 µM | [49] > 100 µM | [50] > 100 µM | [51] > 100 µM | [52] > 100 µM | [53] > 100 µM
> 100 µM: [12]

— ChEMBL document CHEMBL1201862, “PubChem BioAssay data set” (2004)
